From US11530210B2, “Substituted heteroaromatic pyrazolo-pyridines and their use as GLUN2B receptor modulators” (JANSSEN PHARMACEUTICA NV, priority 2019, dated 2022)
Structures can show the parent of a compound that is named as a salt.

What follows are compounds tested against T1, human GluN1/GluN2B NMDA receptors (Homo sapiens, UniProt Q13224) (assay: Calcium flux (FLIPR) assay on cloned human NR1/GluN2B ion channels expressed in mammalian cells (standard and HTS variants)). Settings: cells expressing human GluN1/GluN2B, glutamate and glycine co-agonists.
T1 construct: expressed in transfected cells
T1 sequence (Q13224 27-1484, other chains not shown): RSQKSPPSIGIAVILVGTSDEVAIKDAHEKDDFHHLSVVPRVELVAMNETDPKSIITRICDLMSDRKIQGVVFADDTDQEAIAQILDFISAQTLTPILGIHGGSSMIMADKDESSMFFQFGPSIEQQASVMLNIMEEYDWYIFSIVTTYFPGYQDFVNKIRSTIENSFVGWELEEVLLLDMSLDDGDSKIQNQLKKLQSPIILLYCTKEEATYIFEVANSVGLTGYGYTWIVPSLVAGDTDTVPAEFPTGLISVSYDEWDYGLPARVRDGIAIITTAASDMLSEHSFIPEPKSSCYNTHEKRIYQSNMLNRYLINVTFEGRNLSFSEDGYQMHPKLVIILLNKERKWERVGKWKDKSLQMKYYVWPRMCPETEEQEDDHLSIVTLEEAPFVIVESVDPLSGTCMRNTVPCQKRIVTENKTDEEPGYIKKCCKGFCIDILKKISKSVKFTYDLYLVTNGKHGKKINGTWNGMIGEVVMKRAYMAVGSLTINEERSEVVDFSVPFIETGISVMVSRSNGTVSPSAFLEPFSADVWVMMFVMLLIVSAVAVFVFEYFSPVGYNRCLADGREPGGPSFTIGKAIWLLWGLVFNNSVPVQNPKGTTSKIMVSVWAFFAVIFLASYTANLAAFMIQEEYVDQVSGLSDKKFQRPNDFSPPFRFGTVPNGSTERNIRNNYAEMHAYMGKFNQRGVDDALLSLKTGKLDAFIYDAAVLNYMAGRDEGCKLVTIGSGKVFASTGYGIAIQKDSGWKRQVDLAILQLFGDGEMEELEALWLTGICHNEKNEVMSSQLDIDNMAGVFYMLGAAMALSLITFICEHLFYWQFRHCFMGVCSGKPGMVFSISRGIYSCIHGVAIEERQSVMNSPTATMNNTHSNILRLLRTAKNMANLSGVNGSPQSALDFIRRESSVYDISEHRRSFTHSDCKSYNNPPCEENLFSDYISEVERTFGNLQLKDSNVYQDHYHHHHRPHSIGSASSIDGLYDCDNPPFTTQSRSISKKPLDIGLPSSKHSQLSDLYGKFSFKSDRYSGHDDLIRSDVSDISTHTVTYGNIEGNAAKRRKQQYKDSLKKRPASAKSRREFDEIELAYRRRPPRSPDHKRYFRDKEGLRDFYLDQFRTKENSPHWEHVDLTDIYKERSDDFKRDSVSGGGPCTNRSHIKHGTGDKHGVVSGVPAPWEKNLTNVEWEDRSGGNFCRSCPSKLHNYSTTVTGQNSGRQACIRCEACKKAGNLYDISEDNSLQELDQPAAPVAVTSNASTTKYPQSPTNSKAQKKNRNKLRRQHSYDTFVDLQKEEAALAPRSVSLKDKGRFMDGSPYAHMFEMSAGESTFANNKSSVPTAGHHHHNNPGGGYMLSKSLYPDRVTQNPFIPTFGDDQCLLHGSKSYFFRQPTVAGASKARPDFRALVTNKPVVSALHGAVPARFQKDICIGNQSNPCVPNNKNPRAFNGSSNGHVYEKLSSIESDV
Assay type: cell-based
Procedure, shortened: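 Calcium influx read by FLIPR after co-agonist addition (glycine 10 μM, glutamate near EC40) following 5 min compound preincubation, with signal normalized to control wells.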
For `Fc1cncc(Cn2ncc3ncc(-c4ccc(F)c(C(F)(F)F)c4)cc32)c1` [Example 233, 1-[(5-Fluoro-3-pyridyl)methyl]-6-[4-fluoro-3-(trifluoromethyl)phenyl]pyrazolo[4,3-b]pyridine], the IC50 was 0.075 µM.
Compound `COc1ccc(Cn2ncc3ncc(-c4ccc(F)c(OC(F)F)c4)cc32)cn1` [Example 227, 6-[3-(Difluoromethoxy)-4-fluoro-phenyl]-1-[(6-methoxy-3-pyridyl)methyl]pyrazolo[4,3-b]pyridine] has an IC50 of 1.62 µM.
Compound `CNc1nnc(Cn2ncc3ncc(-c4ccc(F)c(C(F)F)c4)cc32)s1` [Example 126, 5-((6-(3-(difluoromethyl)-4-fluorophenyl)-1H-pyrazolo[4,3-b]pyridin-1-yl)methyl)-N-methyl-1,3,4-thiadiazol-2-amine] has an IC50 of 1.62 µM.
For `CNc1nnc(Cn2ncc3ncc(-c4ccc(F)c(OC(F)F)c4)cc32)s1` [Example 15, 5-[[6-[3-(Difluoromethoxy)-4-fluoro-phenyl]pyrazolo[4,3-b]pyridin-1-yl]methyl]-N-methyl-1,3,4-thiadiazol-2-amine], the IC50 was > 2.99 µM.
Work on `Cc1nnc(Cn2nc(F)c3ncc(-c4cccc(C(C)(F)F)c4)cc32)o1` [Example 83, 2-[[6-[3-(1,1-Difluoroethyl)phenyl]-3-fluoro-pyrazolo[4,3-b]pyridin-1-yl]methyl]-5-methyl-1,3,4-oxadiazole] yielded an IC50 of 0.126 µM.
Compound `N#Cc1cccc(Cn2ncc3ncc(-c4ccc(F)c(OC(F)F)c4)cc32)c1` [Example 29, 3-[[6-[3-(Difluoromethoxy)-4-fluoro-phenyl]pyrazolo[4,3-b]pyridin-1-yl]methyl]benzonitrile] has an IC50 of 0.065 µM.
For `Fc1ccc(Cn2ncc3ncc(-c4cccc(C(F)(F)F)c4)cc32)cn1` [Example 169, 1-[(6-Fluoro-3-pyridyl)methyl]-6-[3-(trifluoromethyl)phenyl]pyrazolo[4,3-b]pyridine], the IC50 was 0.234 µM.
`Cc1nc(Cn2ncc3ncc(-c4ccc(F)c(C(F)F)c4)cc32)cs1` [Example 67, 4-[[6-[3-(Difluoromethyl)-4-fluoro-phenyl]pyrazolo[4,3-b]pyridin-1-yl]methyl]-2-methyl-thiazole] was tested, and the IC50 was 0.466 µM.
`CN(C)c1nnc(Cn2ncc3ncc(-c4ccc(F)c(C(F)F)c4)cc32)o1` [Example 101, 5-[[6-[3-(Difluoromethyl)-4-fluoro-phenyl]pyrazolo[4,3-b]pyridin-1-yl]methyl]-N,N-dimethyl-1,3,4-oxadiazol-2-amine] was tested, and the IC50 was > 2.99 µM.
`Cc1ccncc1Cn1ncc2ncc(-c3ccc(F)c(F)c3)cc21` [Example 190, 6-(3,4-Difluorophenyl)-1-[(4-methyl-3-pyridyl)methyl]pyrazolo[4,3-b]pyridine trifluoroacetate salt] was tested, and the IC50 was 0.158 µM.
For `Fc1ccc(-c2cnc3cnn(Cc4cncc(C(F)F)c4)c3c2)cc1C(F)F` [Example 209, 6-[3-(Difluoromethyl)-4-fluoro-phenyl]-1-[[5-(difluoromethyl)-3-pyridyl]methyl]pyrazolo[4,3-b]pyridine], the IC50 was 0.02 µM.
Compound `Cc1cc(Cn2ncc3ncc(-c4ccc(F)c(OC(F)F)c4)cc32)no1` [Example 59, 3-[[6-[3-(Difluoromethoxy)-4-fluoro-phenyl]pyrazolo[4,3-b]pyridin-1-yl]methyl]-5-methyl-isoxazole] has an IC50 of 0.061 µM.
In the case of `Cc1cc(-c2cnc3cnn(Cc4cccnn4)c3c2)ccc1Cl` [Example 267, 6-(4-Chloro-3-methyl-phenyl)-1-(pyridazin-3-ylmethyl)pyrazolo[4,3-b]pyridine], the IC50 is reported as 0.404 µM.
`Cc1nnc(Cn2ncc3ncc(-c4ccnc(C(F)(F)F)c4)cc32)o1` [Example 88, 2-Methyl-5-[[6-[2-(trifluoromethyl)-4-pyridyl]pyrazolo[4,3-b]pyridin-1-yl]methyl]-1,3,4-oxadiazole] was tested, and the IC50 was 0.467 µM.
With `FC(F)(F)c1cccc(-c2cnc3cnn(Cc4ccncn4)c3c2)c1` [Example 6, 1-(Pyrimidin-4-ylmethyl)-6-[3-(trifluoromethyl)phenyl]pyrazolo[4,3-b]pyridine hydrochloride salt] the IC50 was 0.819 µM.
`Fc1ccc(-c2cnc3cnn(Cc4ccno4)c3c2)cc1C(F)F` [Example 50, 5-[[6-[3-(Difluoromethyl)-4-fluoro-phenyl]pyrazolo[4,3-b]pyridin-1-yl]methyl]isoxazole] gave an IC50 of 0.031 µM.
Compound `Cc1cncc(Cn2ncc3ncc(-c4ccc(F)c(F)c4)cc32)c1` [Example 189, 6-(3,4-Difluorophenyl)-1-[(5-methyl-3-pyridyl)methyl]pyrazolo[4,3-b]pyridine] has an IC50 of 0.07 µM.
In the case of `Cc1noc(C)c1Cn1ncc2ncc(-c3ccc(F)c(C(F)F)c3)cc21` [Example 57, 4-[[6-[3-(Difluoromethyl)-4-fluoro-phenyl]pyrazolo[4,3-b]pyridin-1-yl]methyl]-3,5-dimethyl-isoxazole], the IC50 is reported as 0.082 µM.
Compound `Fc1ccc(-c2cnc3cnn(Cc4cccnc4)c3c2)cc1F` [Example 187, 6-(3,4-Difluorophenyl)-1-(3-pyridylmethyl)pyrazolo[4,3-b]pyridine trifluoroacetate salt] has an IC50 of 0.218 µM.
With `Oc1nnc(Cn2ncc3ncc(-c4ccc(F)c(C(F)F)c4)cc32)s1` [Example 17, 5-[[6-[3-(Difluoromethyl)-4-fluoro-phenyl]pyrazolo[4,3-b]pyridin-1-yl]methyl]-1,3,4-thiadiazol-2-ol] the IC50 was 0.064 µM.
`COc1ccc(Cn2ncc3ncc(-c4cccc(C(F)(F)F)c4)cc32)cc1` [Example 24, 1-[(4-Methoxyphenyl)methyl]-6-[3-(trifluoromethyl)phenyl]pyrazolo[4,3-b]pyridine hydrochloride salt] was tested, and the IC50 was 7.93 µM.
With `Cc1cnc(Cn2ncc3ncc(-c4ccc(F)c(C)c4F)cc32)o1` [Example 9, 2-[[6-(2,4-Difluoro-3-methyl-phenyl)pyrazolo[4,3-b]pyridin-1-yl]methyl]-5-methyl-oxazole] the IC50 was 0.078 µM.
`Cc1cc(Cn2ncc3ncc(-c4cccc(C(F)(F)F)c4)cc32)[nH]n1` [Example 14, 1-[(3-Methyl-1H-pyrazol-5-yl)methyl]-6-[3-(trifluoromethyl)phenyl]pyrazolo[4,3-b]pyridine] was tested, and the IC50 was 4.74 µM.
With `COc1cccc(-c2cnc3cnn(Cc4ccc(F)nc4)c3c2)c1` [Example 155, 1-[(6-Fluoro-3-pyridyl)methyl]-6-(3-methoxyphenyl)pyrazolo[4,3-b]pyridine] the IC50 was 1.65 µM.
`Cc1cc(-c2cnc3cnn(Cc4cccnn4)c3c2)ccc1F` [Example 259, 6-(4-Fluoro-3-methyl-phenyl)-1-(pyridazin-3-ylmethyl)pyrazolo[4,3-b]pyridine trifluoroacetate salt] showed an IC50 of 0.03 µM.
With `FC(F)(F)c1cccc(-c2cnc3cnn(Cc4cncc(Br)c4)c3c2)c1` [Example 2, 1-[(5-Bromo-3-pyridyl)methyl]-6-[3-(trifluoromethyl)phenyl]pyrazolo[4,3-b]pyridine] the IC50 was 0.329 µM.
`Fc1cncc(Cn2ncc3ncc(-c4cccc(OC(F)F)c4)cc32)c1` [Example 159, 6-[3-(Difluoromethoxy)phenyl]-1-[(5-fluoro-3-pyridyl)methyl]pyrazolo[4,3-b]pyridine] showed an IC50 of 0.249 µM.
Work on `N#Cc1cc(F)cc(Cn2ncc3ncc(-c4ccc(F)c(C(F)F)c4)cc32)c1` [Example 28, 3-[[6-[3-(Difluoromethyl)-4-fluoro-phenyl]pyrazolo[4,3-b]pyridin-1-yl]methyl]-5-fluoro-benzonitrile] yielded an IC50 of 0.125 µM.
`Cc1cc(Cn2ncc3ncc(-c4cccc(C(F)(F)F)c4)cc32)n(C)n1` [Example 37, 1-[(2,5-Dimethylpyrazol-3-yl)methyl]-6-[3-(trifluoromethyl)phenyl]pyrazolo[4,3-b]pyridine] was tested, and the IC50 was 3.95 µM.
For `CC(F)(F)c1cccc(-c2cnc3cnn(Cc4cncnc4)c3c2)c1` [Example 274, 6-[3-(1,1-Difluoroethyl)phenyl]-1-(pyrimidin-5-ylmethyl)pyrazolo[4,3-b]pyridine], the IC50 was 0.051 µM.
`COc1cncc(Cn2ncc3ncc(-c4ccc(F)c(Cl)c4)cc32)c1` [Example 196, 6-(3-Chloro-4-fluoro-phenyl)-1-[(5-methoxy-3-pyridyl)methyl]pyrazolo[4,3-b]pyridine] showed an IC50 of 0.152 µM.
With `FC(F)(F)c1cccc(-c2cnc3cnn(Cc4ccon4)c3c2)c1` [Example 44, 3-[[6-[3-(Trifluoromethyl)phenyl]pyrazolo[4,3-b]pyridin-1-yl]methyl]isoxazole] the IC50 was 0.165 µM.
`Cc1cc(-c2cnc3cnn(Cc4nnc(C(F)(F)F)o4)c3c2)ccc1F` [Example 91, 2-[[6-(4-Fluoro-3-methyl-phenyl)pyrazolo[4,3-b]pyridin-1-yl]methyl]-5-(trifluoromethyl)-1,3,4-oxadiazole] showed an IC50 of 0.145 µM.
With `Fc1ccc(-c2cnc3cnn(Cc4cn[nH]c4)c3c2)cc1OC(F)F` [Example 11, 6-[3-(Difluoromethoxy)-4-fluoro-phenyl]-1-(1H-pyrazol-4-ylmethyl)pyrazolo[4,3-b]pyridine] the IC50 was 0.486 µM.
With `Fc1ccc(-c2cnc3cnn(Cc4ccon4)c3c2)cc1C(F)F` [Example 51, 3-[[6-[3-(Difluoromethyl)-4-fluoro-phenyl]pyrazolo[4,3-b]pyridin-1-yl]methyl]isoxazole] the IC50 was 0.023 µM.
With `Cc1cnc(Cn2ncc3ncc(-c4ccc(F)c(C)c4)cc32)s1` [Example 68, 2-[[6-(4-Fluoro-3-methyl-phenyl)pyrazolo[4,3-b]pyridin-1-yl]methyl]-5-methyl-thiazole] the IC50 was 0.265 µM.
`Cc1nnc(Cn2nc(F)c3ncc(-c4ccc(F)c(C(F)F)c4)cc32)s1` [Example 123, 2-[[6-[3-(Difluoromethyl)-4-fluoro-phenyl]-3-fluoro-pyrazolo[4,3-b]pyridin-1-yl]methyl]-5-methyl-1,3,4-thiadiazole] showed an IC50 of 0.042 µM.
Compound `Fc1cncc(Cn2ncc3ncc(-c4ccc(F)c(F)c4)cc32)c1` [Example 192, 6-(3,4-Difluorophenyl)-1-[(5-fluoro-3-pyridyl)methyl]pyrazolo[4,3-b]pyridine trifluoroacetate salt] has an IC50 of 0.048 µM.
Work on `Cc1ccncc1Cn1ncc2ncc(-c3ccc(F)c(C)c3F)cc21` [Example 247, 6-(2,4-Difluoro-3-methyl-phenyl)-1-[(4-methyl-3-pyridyl)methyl]pyrazolo[4,3-b]pyridine trifluoroacetate salt] yielded an IC50 of 0.128 µM.
